According to ChEMBL document CHEMBL5634071, “Fluorine in anti-HIV drugs approved by FDA from 1981 to 2023” (Eur J Med Chem, 2023):

Experiments:
[1] = test system: Human immunodeficiency virus; experiment: Antiviral activity agaisnt HIV BAL infected in human PM1 cells assessed as inhibition of viral replication; type: functional, organism-based; details: Human immunodeficiency virus 1, BAL
[2] = target: C-C chemokine receptor type 5 (Homo sapiens, UniProt P51681); experiment: Displacement of [125I]MIP-1alpha from CCR5 receptor (unknown origin) expressed in HEK293 cells; type: cell-based
C-C chemokine receptor type 5, sequence (P51681 whole entry): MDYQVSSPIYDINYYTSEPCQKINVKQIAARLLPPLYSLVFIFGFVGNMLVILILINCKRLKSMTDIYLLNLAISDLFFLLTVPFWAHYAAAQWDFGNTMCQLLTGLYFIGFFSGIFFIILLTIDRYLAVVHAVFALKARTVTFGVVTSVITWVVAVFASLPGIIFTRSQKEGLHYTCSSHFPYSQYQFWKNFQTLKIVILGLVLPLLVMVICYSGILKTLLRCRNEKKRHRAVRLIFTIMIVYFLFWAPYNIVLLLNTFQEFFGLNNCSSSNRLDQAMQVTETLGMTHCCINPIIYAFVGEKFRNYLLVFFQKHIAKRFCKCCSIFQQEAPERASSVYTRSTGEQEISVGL

[3] = target: Human immunodeficiency virus type 1 protease (Human immunodeficiency virus 1, UniProt Q72874); experiment: Inhibition of HIV-1 protease
[4] = test system: Human immunodeficiency virus 1; experiment: Antiviral activity against HIV-1 IIIB infected in human H9 cells; type: functional, organism-based; details: Human immunodeficiency virus 1, IIIB
[5] = test system: Human immunodeficiency virus 1; experiment: Antiviral activity against NNRTI-resistant HIV-1 harboring Y181C mutant assessed as inhibition of viral growth; type: functional
[6] = test system: Human immunodeficiency virus 1; experiment: Antiviral activity against NNRTI-resistant HIV-1 harboring K103N mutant assessed as inhibition of viral growth; type: functional
[7] = test system: Human immunodeficiency virus 1; experiment: Antiviral activity against NNRTI-resistant HIV-1 harboring K103N/Y181C double mutant assessed as inhibition of viral growth; type: functional
[8] = test system: Human immunodeficiency virus 1; experiment: Antiviral activity against HIV-1 infected in PBMC (unknown origin) assessed as inhibition of viral replication by ELISA; type: functional, organism-based; details: Human immunodeficiency virus 1, PBMC
[9] = Inhibition of wildtype HIV Reverse transcriptase; set-up: species or system Human immunodeficiency virus
[10] = Inhibition of HIV integrase; set-up: species or system Human immunodeficiency virus
[11] = Cytotoxicity against human CEM cells; type: toxicity, cell-based; details: CEM cells (CCRF-CEM)
[12] = test system: Human immunodeficiency virus 1; experiment: Antiviral activity against HIV-1 LAV infected in human CEM cells; type: functional, organism-based; details: Human immunodeficiency virus 1, LAV, CCRF-CEM
[13] = test system: Human immunodeficiency virus 1; experiment: Antiviral activity against HIV-1 RF infected in human MT4 cells assessed as reduction in viral RNA production measured after 3 days by plaque assay; type: functional; details: Human immunodeficiency virus 1, RF, MT4, 72 h; time 3 day
[14] = Half-life in human administered as single dose; type: ADME
[15] = test system: Human immunodeficiency virus; experiment: Antiviral activity against HIV IIIB infected in human MT4 cells; type: functional, organism-based; details: Human immunodeficiency virus 1, IIIB
[16] = test system: Human immunodeficiency virus 1; experiment: Antiviral activity against HIV-1 NL4-3 infected in human MT4 cells assessed as reduction in virus induced cytopathic effect by XTT assay; type: functional, organism-based; details: Human immunodeficiency virus 1, NL4-3, MT4
[17] = target: T1, DNA polymerase subunit gamma-1 (Homo sapiens) (UniProt P54098); experiment: Binding affinity to human DNA polymerase gamma assessed as polymerization rate
T1 sequence (whole entry): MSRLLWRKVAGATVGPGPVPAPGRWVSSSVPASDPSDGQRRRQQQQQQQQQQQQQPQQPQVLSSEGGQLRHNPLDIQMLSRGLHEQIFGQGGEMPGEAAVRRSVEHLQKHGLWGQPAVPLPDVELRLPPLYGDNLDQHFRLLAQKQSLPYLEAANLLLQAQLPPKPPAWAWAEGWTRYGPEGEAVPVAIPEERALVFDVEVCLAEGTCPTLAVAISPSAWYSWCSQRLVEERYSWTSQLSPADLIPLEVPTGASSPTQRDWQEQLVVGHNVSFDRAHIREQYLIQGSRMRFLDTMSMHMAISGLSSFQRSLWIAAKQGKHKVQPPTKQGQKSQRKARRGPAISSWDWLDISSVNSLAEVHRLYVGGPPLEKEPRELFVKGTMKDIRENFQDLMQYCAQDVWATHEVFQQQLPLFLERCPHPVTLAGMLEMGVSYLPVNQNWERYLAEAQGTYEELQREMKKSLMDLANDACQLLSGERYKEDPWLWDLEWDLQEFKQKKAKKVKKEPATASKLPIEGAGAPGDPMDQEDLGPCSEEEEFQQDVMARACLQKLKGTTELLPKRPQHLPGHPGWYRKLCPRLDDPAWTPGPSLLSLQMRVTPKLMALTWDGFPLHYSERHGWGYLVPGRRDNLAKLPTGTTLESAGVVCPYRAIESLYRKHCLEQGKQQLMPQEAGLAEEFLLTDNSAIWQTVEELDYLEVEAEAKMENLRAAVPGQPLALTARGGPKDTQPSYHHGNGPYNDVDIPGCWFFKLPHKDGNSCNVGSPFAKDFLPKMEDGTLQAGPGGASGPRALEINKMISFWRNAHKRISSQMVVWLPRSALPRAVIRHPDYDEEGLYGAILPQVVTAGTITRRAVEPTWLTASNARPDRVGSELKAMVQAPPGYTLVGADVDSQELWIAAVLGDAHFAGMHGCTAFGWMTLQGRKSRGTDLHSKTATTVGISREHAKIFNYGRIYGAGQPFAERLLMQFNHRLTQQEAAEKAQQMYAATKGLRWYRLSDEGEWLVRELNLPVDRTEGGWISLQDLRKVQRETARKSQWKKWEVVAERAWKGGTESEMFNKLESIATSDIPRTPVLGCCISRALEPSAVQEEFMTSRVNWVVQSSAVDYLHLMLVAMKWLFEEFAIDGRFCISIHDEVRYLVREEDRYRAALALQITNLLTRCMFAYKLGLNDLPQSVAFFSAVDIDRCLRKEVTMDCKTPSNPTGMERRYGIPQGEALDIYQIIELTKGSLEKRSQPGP

[18] = target: T2, DNA polymerase subunit gamma-1 (Homo sapiens, UniProt P54098); experiment: Binding affinity to human DNA polymerase gamma assessed as dissociation constant
T2 sequence (P54098 whole entry): T1 sequence (whole entry)

[19] = target: T1, DNA polymerase subunit gamma-1 (Homo sapiens); experiment: Ratio of K for biding affinity to human DNA polymerase gamma assessed as polymerization rate to Kd for binding affinity to human DNA polymerase gamma
[20] = Cytotoxicity against human CEM cells measured after 6 days; details: CEM cells (CCRF-CEM)
[21] = target: Cytochrome P450 2D6 (Homo sapiens, UniProt P10635); experiment: Inhibition of CYP2D6 (unknown origin); type: ADME
Cytochrome P450 2D6, sequence (P10635 whole entry): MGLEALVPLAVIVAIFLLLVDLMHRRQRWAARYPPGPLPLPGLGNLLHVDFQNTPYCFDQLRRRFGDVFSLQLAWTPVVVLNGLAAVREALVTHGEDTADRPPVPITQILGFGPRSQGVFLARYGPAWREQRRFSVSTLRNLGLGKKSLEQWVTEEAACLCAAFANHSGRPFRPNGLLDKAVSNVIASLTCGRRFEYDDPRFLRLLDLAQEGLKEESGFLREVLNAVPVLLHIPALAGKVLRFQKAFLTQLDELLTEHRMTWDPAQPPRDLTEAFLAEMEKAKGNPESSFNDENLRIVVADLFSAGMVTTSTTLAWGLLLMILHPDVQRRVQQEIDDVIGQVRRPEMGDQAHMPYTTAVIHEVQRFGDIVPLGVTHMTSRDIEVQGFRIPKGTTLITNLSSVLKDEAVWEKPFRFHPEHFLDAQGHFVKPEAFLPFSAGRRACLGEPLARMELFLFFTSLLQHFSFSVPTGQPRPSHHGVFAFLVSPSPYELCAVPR

[22] = test system: Human immunodeficiency virus; experiment: Antiviral activity against HIV; type: functional, organism-based; details: Human immunodeficiency virus 1
[23] = target: hERG (Homo sapiens, UniProt Q12809); experiment: Inhibition of tritium labelled dofetilide binding to hERG expressed in HEK293 cells at 300 nM relative to control; type: toxicity, cell-based; details: HEK293 cells that express hERG, probe tritium labelled dofetilide
hERG, sequence (Q12809 whole entry): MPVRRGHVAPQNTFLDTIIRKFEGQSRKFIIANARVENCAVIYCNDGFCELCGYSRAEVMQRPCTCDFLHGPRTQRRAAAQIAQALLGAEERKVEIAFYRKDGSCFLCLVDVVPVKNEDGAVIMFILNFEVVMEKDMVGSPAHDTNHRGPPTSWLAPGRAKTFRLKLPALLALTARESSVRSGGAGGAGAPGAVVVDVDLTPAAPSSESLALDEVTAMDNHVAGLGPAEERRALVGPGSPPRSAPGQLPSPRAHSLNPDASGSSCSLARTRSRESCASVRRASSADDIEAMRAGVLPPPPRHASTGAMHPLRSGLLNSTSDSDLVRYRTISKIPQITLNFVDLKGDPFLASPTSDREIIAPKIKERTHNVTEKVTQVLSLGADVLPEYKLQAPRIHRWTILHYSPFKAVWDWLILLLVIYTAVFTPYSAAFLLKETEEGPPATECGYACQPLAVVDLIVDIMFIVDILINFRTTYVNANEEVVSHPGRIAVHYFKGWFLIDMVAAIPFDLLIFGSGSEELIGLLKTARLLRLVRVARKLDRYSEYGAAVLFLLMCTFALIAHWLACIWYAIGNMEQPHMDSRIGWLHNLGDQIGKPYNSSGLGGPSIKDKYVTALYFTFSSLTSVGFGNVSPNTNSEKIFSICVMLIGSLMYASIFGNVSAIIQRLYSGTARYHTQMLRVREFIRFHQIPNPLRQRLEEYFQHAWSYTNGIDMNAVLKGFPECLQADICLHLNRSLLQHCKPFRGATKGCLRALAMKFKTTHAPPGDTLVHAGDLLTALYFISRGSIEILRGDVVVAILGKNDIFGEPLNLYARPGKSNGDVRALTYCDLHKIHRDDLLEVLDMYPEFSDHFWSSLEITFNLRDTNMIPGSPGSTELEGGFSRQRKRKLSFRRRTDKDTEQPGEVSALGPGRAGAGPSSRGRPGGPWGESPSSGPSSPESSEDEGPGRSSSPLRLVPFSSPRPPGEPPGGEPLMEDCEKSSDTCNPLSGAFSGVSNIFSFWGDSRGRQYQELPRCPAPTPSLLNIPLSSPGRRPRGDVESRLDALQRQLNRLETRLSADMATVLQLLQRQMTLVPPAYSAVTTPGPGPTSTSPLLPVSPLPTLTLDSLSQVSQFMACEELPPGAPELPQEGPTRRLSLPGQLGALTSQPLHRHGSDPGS

[24] = Metabolic stability in rhesus monkey hepatocytes assessed as half-life; type: ADME, cell-based, Macaca mulatta, Hepatocyte
[25] = target: Human immunodeficiency virus type 1 Gag protein (Human immunodeficiency virus 1, UniProt Q77YG1); experiment: Binding affinity to HIV1 Gag assessed as dissociation constant
[26] = test system: Human immunodeficiency virus 1; experiment: Antiviral activity against HIV-1 infected in human PBMC; type: functional, organism-based; details: Human immunodeficiency virus 1, PBMC

## Cc1nc2ccccc2n1C1CCN(CCC(NC(=O)c2ccccc2)c2ccccc2)CC1 (configuration not stated)
[1]
  IC50: 210 nM
[2]
  IC50: 45 nM

## CCC[C@]1(CCc2ccccc2)CC(O)=C([C@@H](CC)c2cccc(NS(=O)(=O)c3ccc(C#N)cn3)c2)C(=O)O1
[3]
  Ki: 0.12 nM
[4]
  IC50: > 1000 nM
  IC90: > 1000 nM

## Cn1c(Cn2ccc(C(F)(F)F)c(Oc3cc(Cl)cc(C#N)c3)c2=O)n[nH]c1=O [DORAVIRINE]
[5]
  IC95: 27 nM
[6]
  IC95: 43 nM
[7]
  IC95: 55 nM

## CCC[C@]1(CCc2ccccc2)CC(O)=C([C@H](CC)c2cccc(NS(=O)(=O)c3ccc(C#N)cn3)c2)C(=O)O1
[3]
  Ki: 0.04 nM
[4]
  IC50: 110 nM
  IC90: 890 nM

## O=c1[nH]cnc2c1ncn2[C@H]1CC[C@@H](CO)O1 [DIDANOSINE]
[8]
  IC50: 760 nM

## Cc1cc(C)c(-n2nnnc2SCC(=O)Nc2ccc(S(N)(=O)=O)cc2Cl)c(C)c1
[9]
  IC50: 4.1 nM

## O=C(/C=C(\O)c1nc[nH]n1)c1ccc(Cc2ccc(F)cc2)o1 [S-1360]
[10]
  IC50: 20 nM

## Nc1ccn([C@H]2CS[C@@H](CO)O2)c(=O)n1
[11]
  CC50: 2700 nM
[12]
  IC50: 100 nM

## O=C1Nc2ccc(Cl)cc2[C@@](C#CC2CC2)(C(F)(F)F)O1 [EFAVIRENZ]
[13]
  IC90: 1.7 nM
[14]
  half-life: < 52 h

## O=C1Nc2ccc(Cl)cc2[C@@](C#Cc2ccccn2)(C2CC2)N1
[15]
  IC50: 12 nM

## NS(=O)(=O)c1ccc(NC(=O)COc2cccc(Oc3ccccc3)c2)c(Cl)c1
[9]
  IC50: 52 nM

## Cc1nnc(C(C)C)n1C1CC2CCC(C1)N2CC[C@H](NC(=O)CCC(F)(F)F)c1ccccc1 (some centres not stated)
[1]
  IC90: 14 nM

## Cc1[nH]c2ccccc2c1CC(=O)N[C@@H](Cc1ccccc1)C(=O)N(C)c1ccccc1
[16]
  IC50: 570 nM

## Cc1nnc(C(C)C)n1C1CC2CCC(C1)N2CC[C@H](NC(=O)C1CCC1)c1ccccc1 (some centres not stated)
[1]
  IC90: 8 nM

## Nc1nc(=O)n([C@@H]2CS[C@H](COP(=O)(O)OP(=O)(O)OP(=O)(O)O)O2)cc1F [EMTRICITABINE 5'-TRIPHOSPHATE]
[17]
  K: < 8.6 10^-3/s
[18]
  Kd: 63000 nM
[19]
  Ratio: < 1.4 10^-4/µM/s

## Cc1nc2ccccc2n1C1CCN(CC[C@@H](NC(=O)c2ccccc2)c2ccccc2)CC1
[2]
  IC50: 580 nM

## Nc1ccn([C@H]2C[C@H](O)[C@@H](COP(=O)(O)OP(=O)(O)OP(=O)(O)O)O2)c(=O)n1 [DEOXYCYTIDINE TRIPHOSPHATE]
[17]
  K: 44 s⁻¹
[18]
  Kd: 1100 nM
[19]
  Ratio: 40 µM⁻¹ s⁻¹

## Nc1nc(=O)n([C@H]2CS[C@@H](CO)O2)cc1F
[20]
  CC50 at 144 h: > 100000 nM
[12]
  IC50: 1400 nM

## Cc1nnc(C(C)C)n1C1CC2CCC(C1)N2CC[C@H](NC(=O)C1CCCC1)c1ccccc1 (some centres not stated)
[1]
  IC90: 1.6 nM

## O=C1Nc2ccc(Cl)cc2[C@@](C#CC2CC2)(C(F)(F)F)N1
[13]
  IC90: 2 nM

## O=C1Nc2ccc(Cl)cc2[C@](C#Cc2ccccn2)(C2CC2)N1
[15]
  IC50: 9300 nM

## O=C1Nc2ccc(Cl)cc2[C@@](/C=C/C2CC2)(C(F)(F)F)N1
[13]
  IC90: 2.1 nM

## Cc1nc2cnccc2n1C1CCN(CCC(c2ccccc2)c2ccccc2)CC1
[21]
  IC50: 40 nM

## CCC(c1ccccc1)c1c(O)c2ccccc2oc1=O (configuration not stated) [PHENPROCOUMON]
[22]
  IC50: 100000 nM

## Cc1nnc(C(C)C)n1C1CC2CCC(C1)N2CC[C@H](NC(=O)C1CCOCC1)c1ccccc1 (some centres not stated)
[1]
  IC90: 125 nM
[23]
  inhibition at 0.3 µM: 0%

## Cc1[nH]c2ccccc2c1CC(=O)N[C@@H](Cc1ccccc1)C(=O)N(C)c1ccccn1
[16]
  IC50: 800 nM

## Nc1nc(=O)n(C2CSC(CO)O2)cc1F (racemic) [EMTRICITABINE, (+/-)-]
[20]
  CC50 at 144 h: > 100000 nM
[12]
  IC50: 80 nM

## C[C@@H]1CCO[C@H]2Cn3cc(C(=O)NCc4ccc(F)cc4F)c(=O)c(O)c3C(=O)N12 [DOLUTEGRAVIR]
[10]
  IC50: 2.7 nM

## CC(C)(C#Cc1ccc(-c2ccc(Cl)c3c(NS(=O)(=O)C4CC4)nn(CC(F)F)c23)c([C@H](Cc2cc(F)cc(F)c2)NC(=O)Cn2nc(C(F)(F)F)c3c2C(F)(F)[C@@H]2C[C@H]32)n1)S(C)(=O)=O
[24]
  half-life: 130 h
[25]
  Kd: 2.4 nM
[26]
  IC50: 0.13 nM

## Nc1ccn([C@@H]2CS[C@H](CO)O2)c(=O)n1 [LAMIVUDINE]
[11]
  CC50: > 100000 nM
[12]
  IC50: 70 nM

## Cc1cn([C@H]2C[C@H](N=[N+]=[N-])[C@@H](CO)O2)c(=O)[nH]c1=O [ZIDOVUDINE]
[8]
  IC50: 55 nM

## Cc1nc2ccccc2n1C1CCN(CCC(c2ccccc2)c2ccccc2)CC1
[21]
  IC50: 710 nM
[2]
  IC50: 4 nM

## CCC[C@@]1(CCc2ccccc2)CC(O)=C([C@@H](CC)c2cccc(NS(=O)(=O)c3ccc(C#N)cn3)c2)C(=O)O1
[3]
  Ki: 0.1 nM
[4]
  IC50: 490 nM
  IC90: 1000 nM

## Nc1ccn([C@@H]2CS[C@H](COP(=O)(O)OP(=O)(O)OP(=O)(O)O)O2)c(=O)n1 [LAMIVUDINE TRIPHOSPHATE]
[17]
  K: 0.13 s⁻¹
[18]
  Kd: 13000 nM
[19]
  Ratio: 0.01 µM⁻¹ s⁻¹

## Cc1nnc(C(C)C)n1[C@H]1C[C@H]2CC[C@@H](C1)N2CC[C@H](NC(=O)C1CCC(F)(F)CC1)c1ccccc1 [MARAVIROC]
[1]
  IC90: 1 nM

## Nc1ccn([C@H]2CC[C@@H](CO)O2)c(=O)n1 [ZALCITABINE]
[8]
  IC50: 11 nM

## Cc1nc2ccccc2n1C1CCN(CC[C@H](NC(=O)c2ccccc2)c2ccccc2)CC1
[2]
  IC50: 13 nM

## Cc1nc2ccccc2n1C1CCN(CC[C@H](NC(=O)C2CCC2)c2ccccc2)CC1
[1]
  IC50: 73 nM

## CN(C(=O)[C@@H](CCc1ccccc1)NC(=O)Cc1c[nH]c2ccccc12)c1ccccn1
[16]
  IC50: 4500 nM

## Nc1ccn([C@H]2CSC(CO)O2)c(=O)n1 (mixture of isomers)
[11]
  CC50: 52600 nM
[12]
  IC50: 70 nM

## Cc1nc2ccccc2n1C1C[C@H]2CC[C@@H](C1)N2CC[C@H](NC(=O)C1CCC1)c1ccccc1 (some centres not stated)
[1]
  IC90: 3 nM
[23]
  inhibition at 0.3 µM: 80%
